Results on five molecules are retold here after patent US6803367B2, “Substance for inducing apoptosis” (Takara Shuzo Co., Ltd., priority 1997, dated 2004).

Where only a bound is given, the exact number is not on record here.

What all share (format): cell-based, human
For assay [1], the system named is HL-60 cells. Put plainly: Growth inhibition of HL-60 cells (MTT, 96-well microtiter plate). The settings on record: for activity of growth inhibition of cancer cells: 5 μl per well, 18 hours incubation. The protocol: (§1) To each of the wells of a 96-well microtiter plate was added 1000, 500, 250, 125, 62.5 or 31.3 μg/ml aqueous solution of imidazolylcyclopentenone obtained in Example 1-(2) or 10 μl of water as a control. HL-60 (ATCC CCL-240) was suspended in an RPMI 1640 medium containing 10% of fetal calf serum to make the concentration 5×10^4 cells/ml and each 90 μl thereof was placed in each well of the above-mentioned microtiter plate and incubated at 37° C. for 48 hours in the presence of 5% carbon dioxide. Incubation was conducted for four hours more after addition of 10 μl of a solution (5 mg/ml) of 3-(4,5-dimethylthiazol-2-yl)-2,5-diphenyltetrzolium bromide (MTT; manufactured by Sigma) in a phosphate-buffered saline solution and the state of growth of the cells was observed under a microscope. Further, 100 μl of 2-propanol containing 0.04N hydrochloric acid was added followed by stirring and an absorbance at 590 nm was measured.
The non-adsorbed fraction of Example 4 was adjusted to pH 3 with HCl and heated at 121° C. for 1 hour. The resulting heat-treated solution was diluted with aseptic water to an extent of 2-, 4-, 8-, 16-, 32- or 64-fold and its activity of growth inhibition of HL-60 cells was measured by the same way as in Example 3.
Main peaks and the fractions between them were collected and evaporated to dryness in vacuo, each of the fractions was diluted to an extent of 3- or 9-fold with water and their activity of growth inhibition of HL-60 cells was measured by the same way as in Example 3 except that 5 μl of the sample were added to each well and the incubation was conducted for 18 hours. […] Production of apoptotic body was confirmed as well.
The growth inhibiting activity of a 1 mM aqueous solution of MC2 and a 350 μM aqueous solution of HMC2 obtained in Example 10 to HL-60 cells was measured by the same way as in Example 3.

The subject of assay [2] is HL-60 cells. Put plainly: Observation of apoptotic body in HL-60 cells under a microscope. The protocol:
as §1
As a result of observation under a microscope, production of apoptotic body was confirmed.
Main peaks and the fractions between them were collected and evaporated to dryness in vacuo, each of the fractions was diluted to an extent of 3- or 9-fold with water and their activity of growth inhibition of HL-60 cells was measured by the same way as in Example 3 except that 5 μl of the sample were added to each well and the incubation was conducted for 18 hours. […]

Assay [3] has as its system HL-60 cells. Put plainly: DNA fragmentation in HL-60 cells by agarose gel electrophoresis. The settings on record: after incubation for 15 hours; concentration of the aqueous solution added (0.5 ml to 4.5 ml suspension). As for the experimental part: (§2) HL-60 cells (ATCC CCL240) which were incubated at 37° C. in an RPMI 1640 medium (manufactured by Nissui) containing 10% of fetal calf serum (manufactured by Gibco) treated at 56° C. for 30 minutes were suspended in the above medium to make the concentration 2.5×10^5 cells/4.5 ml. To this suspension was added 0.5 ml of 10 μM, 20 μM, 40 μM or 80 μM aqueous solution of S-1127 followed by incubating at 37° C. in the presence of 5% carbon dioxide gas for 15 hours or 39 hours.
(§3) Incidentally, such a phenomenon was not observed in the water-added control section.

Assay [4] relates to HL-60 cells. Put plainly: Viable and dead cell counting of HL-60 cells by Trypan Blue staining. The protocol: as §2, §3
In FIG. 31, ◯ indicates the case where 10 μM of S-1127 was added; Δ indicates the case where 20 μM of S-1127 was added; □ indicates the case where 40 μM of S-1127 was added; X indicates the case where 80 μM of S-1127 was added and ● indicates the control where water was added.

As to `COC1=CC(OC)CC1=O` (stereo not shown) [MC2, 2,4-dimethoxy-2-cyclopenten-1-one], the “growth of the cells” value in the assay with HL-60 cells [1] (1 mM solution added, final concentration 100 μM, HL-60) is “inhibited”. In addition, the “apoptotic body under an optical microscope” value in the assay with HL-60 cells [2] (final concentration 100 μM) was “observed”.
Take `CC(=O)Nc1ccc(O)c(O)c1O` [N-(2,3,4-trihydroxyphenyl)acetamide]: the “activity of growth inhibition of cancer cells” value is “activity of growth inhibition of cancer cells was noted” in the assay on HL-60 cells [1] (3-fold diluted solution of the HPLC fraction, HL-60) and “activity of growth inhibition of cancer cells was noted” with HL-60 cells [1] (undiluted aqueous solution of the HPLC fraction, HL-60). In addition, the “production of apoptotic body” value in the assay on HL-60 cells [2] (Example 6, 18 hours incubation) is reported as “confirmed”.
Take `CC(=O)N[C@H]1C(O)O[C@H](CO)[C@H](O)[C@@H]1O` (stereo partly shown) [N-acetylgalactosamine, reference compound]: in the assay with HL-60 cells [1] (4 mg/ml added, HL-60), the “growth of the cells versus water-added control section” value was “no difference”.
For `O=CC(=CCc1ccc(O)cc1)c1ccc(O)cc1` [S-1127, 2,4-bis(p-hydroxyphenyl)-2-butenal], the “concentration at which fragmentation of DNA was noted” value in the assay on HL-60 cells [3] was at least 20 µM. For the same molecule, the “living cell numbers compared with the water-added control section” value in the assay with HL-60 cells [4] (20 μM added, after incubation of 39 hours) is “significantly decreased”. For the same molecule, the “concentration at which cells were killed” value with HL-60 cells [4] (after incubation of 15 hours, concentration of the aqueous solution added (0.5 ml to 4.5 ml suspension)) was at least 40 µM.
In the case of `O=C1CC(n2ccnc2)C=C1O` (stereo not shown) [imidazolylcyclopentenone, 2-hydroxy-4-(1-imidazolyl)-2-cyclopenten-1-one], the “concentration at which the growth of HL-60 cells was completely inhibited” value in the assay on HL-60 cells [1] (final concentration, 48 hours incubation, MTT) came to 6.25 µg/mL.
